Assay: Brain concentrations of harmine, DMT and metabolites by UHPLC-MS after s.c. harmine and/or DMT
Conditions: for concentration at 95 min / concentration at 65 min: rat, subcutaneous, Molar concentration
Description: Groups of (n = 6) rats received either saline, harmine (1 mg/kg), DMT (1 mg/kg), or harmine + DMT (1 mg/kg each) as subcutaneous injections, as indicated in Figure 1.
After 45 min, rats were sacrificed by decapitation, and the brains dissected into cerebellum and frontal cortex samples for radioactivity measurement and chemical analysis, thus 65 min after harmine + DMT.

Question: With `CNCCc1c[nH]c2ccccc12` [NMT, N-methyltryptamine] as the compound, how does the “Percentage of total molar concentration of DMT and metabolites” value (from here on “Percentage”) (Exp 1, group DMT, average of regions) read?
Answer: The value was 0.0%.

Question: What about the “Percentage” value (Exp 1, group DMT, cerebellum) of the same compound?
Answer: Its value is 0.0%.

Question: And the “Percentage” value (Exp 1, group DMT, front cort)?
Answer: The value was 0.0%.

Question: What about the “Percentage” value (Exp 1, group Har + DMT, average of regions) of the same compound?
Answer: Its value is 0.1%.

Question: What about the “Percentage” value (Exp 1, group Har + DMT, cerebellum) of the same compound?
Answer: Its value is 0.1%.

Question: And the “Percentage” value (Exp 1, group Har + DMT, front cort)?
Answer: Its value is 0.0%.

Question: And the “Percentage” value (Exp 2, group Har + DMT, average of regions)?
Answer: Its value is 0.1%.

Question: What about the “Percentage” value (Exp 2, group Har + DMT, cerebellum) of the same compound?
Answer: Its value is 0.2%.

Question: And the “Percentage” value (Exp 2, group Har + DMT, front cort)?
Answer: Its value is 0.1%.

Question: What about the concentration at 95 min (brain (average of frontal cortex and cerebellum), 1 mg/kg, Exp 1, group DMT, average of regions) of the same compound?
Answer: Its concentration at 95 min is 0.15 nM.

Question: What about the concentration at 95 min (brain (average of frontal cortex and cerebellum), Exp 1, group Har + DMT, average of regions) of the same compound?
Answer: The concentration at 95 min was 1.14 nM.

Question: And the concentration at 65 min (brain (average of frontal cortex and cerebellum), Exp 2, group Har + DMT, average of regions)?
Answer: The concentration at 65 min was 15.9 nM.

Question: What about the concentration at 95 min (cerebellum, 1 mg/kg, Exp 1, group DMT, cerebellum) of the same compound?
Answer: Its concentration at 95 min is 0.15 nM.

Question: And the concentration at 95 min (cerebellum, Exp 1, group Har + DMT, cerebellum)?
Answer: Its concentration at 95 min is 1.38 nM.

Question: What about the concentration at 65 min (cerebellum, Exp 2, group Har + DMT, cerebellum) of the same compound?
Answer: The concentration at 65 min was 20.7 nM.

Question: And the concentration at 95 min (frontal cortex, 1 mg/kg, Exp 1, group DMT, front cort)?
Answer: Its concentration at 95 min is 0.16 nM.

Question: What about the concentration at 95 min (frontal cortex, Exp 1, group Har + DMT, front cort) of the same compound?
Answer: The concentration at 95 min was 0.89 nM.

Question: And the concentration at 65 min (frontal cortex, Exp 2, group Har + DMT, front cort)?
Answer: Its concentration at 65 min is 11.2 nM.

Source: PMC10568461, “A pilot study of cerebral metabolism and serotonin 5-HT2A receptor occupancy in rats treated with the psychedelic tryptamine DMT in conjunction with the MAO inhibitor harmine” (Frontiers in Pharmacology, 2023)
